Measurements reported in patent US20260219274A1, “POLYOL SWEETNERS AND CARDIOVASCULAR AND THROMBOTIC EVENT RISK” (THE CLEVELAND CLINIC FOUNDATION, priority 2023, published 2026).

How the values were obtained:
[1] = system: PRP from healthy volunteers; assay: Xylitol dietary challenge: platelet aggregometry before and 30 min after ingestion; format: in vivo, human
Protocol: The second part of xylitol ingestion studies focused on platelet phenotypic changes after oral xylitol challenge. In these parallel studies, platelet-rich plasma (PRP) was isolated immediately after the blood draw (from the same subjects that were used for xylitol pharmacokinetics studies) and aggregometry assays performed (as described below) on blood samples collected at baseline and 30 min (when postprandial peak levels were observed) after xylitol exposure.
A non-randomized study design was used wherein each subject served as their own control, comparing both xylitol levels and indices of platelet function within subjects at baseline versus 30 min following ingestion of the standardized drink of xylitol. […]
Platelet rich plasma (PRP) was isolated as previously described.^5 Whole blood was drawn from healthy donors and anticoagulated with sodium citrate (0.109 M). […] Next, platelets were counted with a hemocytometer and the platelet concentration adjusted to 2×10^8/mL using PPP. […] When used, pairs of vehicle vs. xylitol incubated PRP were always incubated and analyzed together (beginning, middle, end of platelet prep use) and after 120 minutes post isolation, PRPs were not used anymore.

clinical = details: human, in vivo
Protocol: This single center trial was approved by the Cleveland Clinic Institutional Review Board (clinicaltrials.gov identifier NCT04731363). Following subject consent (nonsmokers without CVD, hypertension, or diabetes), blood was drawn after overnight fast and 30 min following consumption of water containing 30 g of […] glucose (n=10, 30.1±11 years of age, 40% male), or erythritol (n=10, 30.5±8 years of age, 50% male), a quantity commonly found in erythritol-sweetened foods and the daily intake of some subjects based on 2013-2014 National Health and Nutrition Examination Survey (NHANES) data and FDA filings.(4,5).
Following erythritol consumption, postprandial circulating erythritol levels (assessed using stable-isotope-dilution liquid-chromatography tandem mass spectrometry (LC/MS/MS)3) were >1000-fold increased compared to baseline levels (median[inter quartile range], 6480[5930-7300]μM versus 3.75[3.35-3.87]μM, P<0.0001). In contrast, circulating erythritol levels remained similar before versus after glucose consumption (3.0[2.6-4.0]μM versus 2.9[2.7-3.8]μM, P=0.87; glucose levels before versus after 86.5(81.8-93.0) versus 127.0(122.3-132.3), P=0.002). […] In contrast, glucose consumption had no effect on platelet aggregation.

Row | Structure (SMILES) | aggregation responses to ADP or TRAP6 after ingestion ([1]; 30 min after 30 g xylitol vs baseline) | platelet responsiveness of individual subjects ([1]; submaximal ADP and TRAP6, after xylitol ingestion, every subject) | concentration at 30 min (clinical; both sexes) | baseline circulating erythritol levels, median[inter quartile range] (clinical; both) | circulating erythritol levels (clinical; both) | circulating erythritol levels (clinical; both, 30 min) | increase of postprandial circulating erythritol vs baseline (clinical; both, 30 min)
1 | OC[C@@H](O)[C@H](O)[C@@H](O)CO [xylitol] | substantial (multiple-fold) increase | significant increase |  |  |  |  | 
2 | OC[C@@H](O)[C@@H](O)CO [erythritol] |  |  | 6480 µM | 3.75[3.35-3.87] μM | 3.0[2.6-4.0] μM | 2.9[2.7-3.8] μM | > 1000 fold
